Reference: ChEMBL document CHEMBL1201862, “PubChem BioAssay data set” (2004)
The source made the active and inactive calls.

What was measured:
Streptococcus = assay: GAS UMAA2166 growth inhibition – luminescence, BacTiterGlo, counter-screen for streptokinase expression inhibitor project, dose response (AID 1915); type: functional, organism-based;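 also: potency for reduction of bacterial viability or growth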
[1] = target: Heat shock protein HSP 90-alpha (Homo sapiens, UniProt P07900); type: functional, organism-based
[2] = target: 5-hydroxytryptamine receptor 2A (Mus musculus, UniProt P35363); type: functional, cell-based;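 also: CHO-K1 cells with tagged receptor and beta-arrestin; agonist potency measured as compound-induced activation of the receptor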
[3] = reduction of Shn3 3'UTR-driven luciferase in osteoblasts – cell-based, Clone20 osteoblasts, firefly luciferase, cherry-picked, dose response (AID 624132); type: functional;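 also: firefly luciferase luminescence from reporter carrying the Shn3 3'UTR in osteoblasts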
Mu-type opioid receptor = Mu-type opioid receptor (Homo sapiens, UniProt P35372); type: functional, cell-based;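 also: U2OS cells with beta-arrestin recruitment to OPRM1 by beta-gal complementation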
Streptokinase A = target: T1, Streptokinase A (Streptococcus pyogenes serotype M1, UniProt P10520); assay: viability-normalized secreted streptokinase activity reduction – plasminogen activation absorbance, OD405, dose response (AID 1914); type: functional, Streptococcus pyogenes M1 GAS;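 also: secreted streptokinase activity via plasminogen activation per viability signal from cell pellet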
T1 sequence (P10520 whole entry): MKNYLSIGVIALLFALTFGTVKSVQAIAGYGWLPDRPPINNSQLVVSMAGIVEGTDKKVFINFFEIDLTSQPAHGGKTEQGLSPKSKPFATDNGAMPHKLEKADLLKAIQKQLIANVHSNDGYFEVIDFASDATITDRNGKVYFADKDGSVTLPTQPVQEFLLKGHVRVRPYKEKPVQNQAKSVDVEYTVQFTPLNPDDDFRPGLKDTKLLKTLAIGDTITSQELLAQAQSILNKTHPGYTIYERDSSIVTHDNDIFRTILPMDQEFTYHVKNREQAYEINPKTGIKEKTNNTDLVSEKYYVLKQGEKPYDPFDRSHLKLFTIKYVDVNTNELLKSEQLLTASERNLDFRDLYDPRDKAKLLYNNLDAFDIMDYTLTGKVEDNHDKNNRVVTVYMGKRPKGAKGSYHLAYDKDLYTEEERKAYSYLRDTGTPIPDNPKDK

[4] = test system: Streptococcus sp. 'group A'; assay: Streptococcus pyogenes SK(-)GAS viability under kanamycin – luminescence, BacTiterGlo, confirmation, counter-screen for streptokinase expression inhibitor project, dose response (AID 1900); type: functional, organism-based
[5] = cytotoxicity toward MDA-MB-231 breast cancer cells – cell-based, CellTiter-Glo luminescence, cherry-pick, cytotoxicity control for RAD54 inhibitor project, dose response (AID 651692); type: functional
[6] = target: T2, DNA repair and recombination protein RAD54-like (Homo sapiens, UniProt Q92698); assay: RAD54 Holliday junction migration blockers – biochemical, fluorescence, cherry-picked samples, dose series, confirmation (AID 651657); type: functional
T2 sequence (Q92698 whole entry): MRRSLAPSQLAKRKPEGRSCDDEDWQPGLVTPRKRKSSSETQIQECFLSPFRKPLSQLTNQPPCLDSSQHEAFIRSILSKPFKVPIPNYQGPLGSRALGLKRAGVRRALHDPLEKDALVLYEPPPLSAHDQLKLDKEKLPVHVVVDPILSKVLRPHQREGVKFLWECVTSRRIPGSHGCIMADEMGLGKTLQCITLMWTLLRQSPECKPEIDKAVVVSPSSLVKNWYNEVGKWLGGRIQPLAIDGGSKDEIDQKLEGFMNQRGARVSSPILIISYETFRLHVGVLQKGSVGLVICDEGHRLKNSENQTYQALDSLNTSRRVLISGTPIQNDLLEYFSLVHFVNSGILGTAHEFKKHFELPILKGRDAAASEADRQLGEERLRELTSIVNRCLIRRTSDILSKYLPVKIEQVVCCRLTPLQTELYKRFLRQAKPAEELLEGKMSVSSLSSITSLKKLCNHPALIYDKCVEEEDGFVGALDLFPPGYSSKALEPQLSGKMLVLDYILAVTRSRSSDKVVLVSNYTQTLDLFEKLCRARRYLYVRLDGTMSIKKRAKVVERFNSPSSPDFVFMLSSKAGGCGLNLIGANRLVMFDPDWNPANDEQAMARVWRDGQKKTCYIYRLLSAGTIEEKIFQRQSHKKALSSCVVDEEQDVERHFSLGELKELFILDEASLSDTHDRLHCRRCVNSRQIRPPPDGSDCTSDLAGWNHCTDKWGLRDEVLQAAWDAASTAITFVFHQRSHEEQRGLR

[7] = target: Adenosylmethionine-8-amino-7-oxononanoate aminotransferase (Mycobacterium tuberculosis, UniProt P9WQ81); assay: Mycobacterium tuberculosis BioA enzyme inhibitor Measured in Biochemical System Using Plate Reader - 2163-02_Inhibitor_Dose_CherryPick_Activity.; type: functional, Mycobacterium tuberculosis UT205
[8] = cytotoxicity in HEK293 background cells – cell-based, dry powder, set 2, counter-screen for EBV LMP1 inhibitor project, dose response (AID 624374); type: functional

Sequence of Mu-type opioid receptor (P35372 whole entry): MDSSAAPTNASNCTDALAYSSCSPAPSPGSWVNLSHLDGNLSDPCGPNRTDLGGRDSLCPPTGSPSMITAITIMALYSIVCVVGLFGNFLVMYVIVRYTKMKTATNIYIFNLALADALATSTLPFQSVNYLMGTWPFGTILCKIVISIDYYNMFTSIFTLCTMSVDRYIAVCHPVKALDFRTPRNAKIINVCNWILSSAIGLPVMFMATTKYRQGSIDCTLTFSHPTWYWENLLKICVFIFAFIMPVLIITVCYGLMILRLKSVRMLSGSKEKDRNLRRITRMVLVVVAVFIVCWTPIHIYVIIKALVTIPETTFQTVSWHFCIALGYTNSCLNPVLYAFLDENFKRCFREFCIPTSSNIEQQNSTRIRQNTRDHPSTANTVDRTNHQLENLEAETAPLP
Sequence of Adenosylmethionine-8-amino-7-oxononanoate aminotransferase (P9WQ81 whole entry): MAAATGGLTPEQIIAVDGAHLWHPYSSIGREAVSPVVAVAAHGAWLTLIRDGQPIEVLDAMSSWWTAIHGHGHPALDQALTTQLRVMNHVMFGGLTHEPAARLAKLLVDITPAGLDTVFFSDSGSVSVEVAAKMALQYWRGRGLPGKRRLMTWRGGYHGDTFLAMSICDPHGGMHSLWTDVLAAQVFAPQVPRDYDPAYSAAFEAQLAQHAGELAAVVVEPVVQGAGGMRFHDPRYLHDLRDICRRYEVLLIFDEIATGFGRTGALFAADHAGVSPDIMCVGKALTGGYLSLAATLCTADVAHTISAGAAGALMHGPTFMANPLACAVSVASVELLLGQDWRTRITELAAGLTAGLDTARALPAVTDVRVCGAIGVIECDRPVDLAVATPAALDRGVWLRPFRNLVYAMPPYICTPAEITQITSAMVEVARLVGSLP
Sequence of 5-hydroxytryptamine receptor 2A (P35363 whole entry): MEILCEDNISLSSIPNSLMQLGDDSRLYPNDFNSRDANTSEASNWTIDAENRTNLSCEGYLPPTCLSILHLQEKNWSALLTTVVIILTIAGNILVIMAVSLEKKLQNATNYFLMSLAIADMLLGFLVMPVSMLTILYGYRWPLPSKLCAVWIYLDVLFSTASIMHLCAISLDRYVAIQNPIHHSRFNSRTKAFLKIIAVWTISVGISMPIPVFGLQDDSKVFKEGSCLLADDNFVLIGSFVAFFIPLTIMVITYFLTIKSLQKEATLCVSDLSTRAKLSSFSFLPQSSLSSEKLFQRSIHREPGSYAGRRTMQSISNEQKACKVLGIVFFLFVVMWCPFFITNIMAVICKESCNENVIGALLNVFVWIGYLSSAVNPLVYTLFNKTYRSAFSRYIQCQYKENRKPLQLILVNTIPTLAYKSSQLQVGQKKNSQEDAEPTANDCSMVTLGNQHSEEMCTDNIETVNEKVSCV

COc1cccc(-c2nc(NC3CCCC3)c3ccccc3n2)c1O
EC50 (Streptococcus): > 150 µM (not active)
AC50 [1]: 3.8 µM (active)
EC50 [2]: 7.62 µM (active)
AC50 [3]: 25 µM (active)
EC50 (Mu-type opioid receptor): 92.4 µM (inactive)
EC50 (Streptokinase A): 78.1 µM (inconclusive)
EC50 [4]: 5.91 µM (active)

CCOC(=O)c1c(C)n(-c2ccc(OC)cc2)c2ccc(O)c(CN(C)C)c12
AC50 [5]: 34.4 µM (active)
AC50 [6]: 52.6 µM (active)

O=C(NCC(c1ccco1)N1CCN(c2ccccc2F)CC1)C1CCCCC1 (centres undefined)
EC50 [2]: 76.1 µM (inactive)
EC50 (Mu-type opioid receptor): 92.5 µM (inactive)

CCC(=O)N1CC[C@@H]2[C@H]1c1cc(-c3cccc(F)c3)ccc1N(C)[C@@H]2CO
AC50 [7]: 2.44 µM (active)

COC(=O)[C@@H]1[C@@H](CO)[C@@H]2Cn3c(ccc(-c4ccccc4)c3=O)[C@@H]2N1Cc1cccc(F)c1
AC50 [7]: 4.33 µM (active)

CO[C@H]1CN(C)C(=O)c2ccc(NC(=O)C3CC3)cc2OC[C@H](C)N(C(=O)c2ccccn2)C[C@H]1C
AbsAC35 [8]: 207.94 µM
